Laboratory results reported in patent US20020040031A1, “Methods for prevention of accumulation of amyloid beta peptide in the central nervous system” (priority 2000, published 2002).

Key:
[1] = system: nerve growth factor (NGF), neurotrophin-3, and basic fibroblast growth factor (bFGF); details: at least three neurotrophins; reference 3; cited from earlier work
PC12 cells = assay: NGF-mediated differentiation of PC12 cells (Example 2); assay type: cell-based
[2] = system: sAPP secretion in PC12 cells; assay: sAPP secretion in PC12 cells, Western immunoblot of conditioned media (Example 1); assay type: cell-based; details: for secretion of sAPP versus control: single agent, PC12 conditioned media, 48 hours, 22C11 immunoblot, NGF 10 and 50 ng/ml, bFGF 50 ng/ml, AIT-082 different doses
Protocol: Treatment of Cells and Preparation of Cell Extract. PC12 cells were first grown to 70-80% confluence in the regular medium. A day prior to the experiment, PC12 cells were subcultured uniformly onto the plate with minimum cellular aggregation/ clumping to approximately 1×10^6 cells per 60-mm plate. The PC12 cells were then subjected to treatments with either AIT-082, NGF, bFGF or a combination as previously described (4). AIT-082 was added into separate plates at […] different doses: 0, 5, 20, 30, 50, 100, 300 ng/ ml and also 1, 3, 10, 30, 100 μg/ml. For comparative purposes, cultures were treated with NGF at 10 and 50 ng/ml, and bFGF was used at 50 ng/ml. Additional cultures contained both AIT-082 (300 ng/ml) and either NGF (50 ng/ml) or bFGF (50 ng/ml). Following incubation for 48 hours, the conditioned medium from each plate was collected.
PAGE and Western Immunoblotting. Total proteins from the conditioned media were analyzed on a 12% polyacrylamide gel containing SDS (SDS-PAGE), and western blot analysis was performed in the Mini-PROTEAN II system of Bio-Rad as described previously (6). sAPP was detected using the 22C11 (Boehringer Mannheim, Indianapolis, Ind.). A biotinylated secondary antibody, horse anti-mouse (Boehringer Mannheim), was also used. The detection system was based on the avidin-biotinylated-complex (Vector labs, Burlingame, Calif.) and enzymatic color reactions.
Treatment of NGF or bFGF Results in a Substantial Increase in sAPP Secretion in PC12 Cells. In denaturing polyacrylamide gel, an equal amount of total protein was loaded from each of the conditioned medium samples. After 48 hours of incubation, 50 μg samples of conditioned media were subjected to SDS-PAGE (12%) and transferred to a nitrocellulose membrane. Protein size markers shown on the left of the blot from top to bottom are: 107, 74, 49.3, 36.4, and 28.5 kDa. For FIG. 1, the transferred proteins were probed with anti-APP antibody (22C11), and immunodetection was carried out by the enzymatic color method as described previously (5). Two distinct bands of 110 and 95 kDa were detected, which correspond to soluble APP derivatives (sAPP) arising from different alternate forms of APP and/or their posttranslationally modified derivatives.

[3] = system: secretion of Aβ in cultured PC12 cells; assay: Secretion of Aβ in cultured PC12 cells, sandwich ELISA (Example 3); assay type: cell-based; details: AIT-082 100 μg/ml, PC12 conditioned media
Protocol: To determine the effect of AIT-082 on Aβ levels, PC12 cells were treated with a high dose of AIT-082 (100 μg/ ml) and the conditioned media was analyzed for Aβ. Levels of total Aβ were measured using a sensitive sandwich ELISA. Experiments were done in triplicate and the values were obtained from known standards run in parallel with the samples as described previously (A. Becher et al., “The Synaptophysin-Synaptobrevin Complex: A Hallmark of Synaptic […] Maturation,” J. Neurosci. 19: 1922-1931).

[4] = system: sAPP secretion in PC12 cells; assay: Time course of sAPP secretion in PC12 cells, Western immunoblotting (Example 2); assay type: cell-based; details: PC12 cells treated for 6, 12, 24, 48, or 72 hours; AIT-082 10 nM-100 μM; RPMI 1640 and 0.5% FBS
Protocol: To determine the time course of sAPP secretion after administration of AIT-082 or NGF to PC12 cells, an experiment similar to the experiment of Example 1 was carried out using multiple time points. Five to six million PC12 cells were treated in RPMI 1640 and 0.5% FBS with doses of AIT-082 (10 nM-100 μM). […] Levels of sAPP in samples from conditioned media and cell lysates were measured by Western immunoblotting with anti-sAPP antibody. When PC12 cells were treated with AIT-082 for 6, 12, 24, 48, or 72 hours, there was an increase in levels of secreted sAPP.

[5] = system: sAPP release from PC12 cultures; details: previously shown, reference 7; cited from earlier work

Row | Compound | expression of neurotrophins (NGF, neurotrophin-3, bFGF) [1] | effect of cotreatment on NGF-mediated differentiation (PC12 cells; AIT-082 cotreatment with NGF, PC12 cells) | levels of extracellular sAPP versus control cultures (dose response, densitometry, FIG. 2) ([2]; AIT-082 5-300 ng/ml, PC12) | secretion of sAPP versus control [2] | Percent change from controls (total Aβ) [3] | Levels of total Aβ ([3]; triplicate) | levels of secreted sAPP [4] | release of sAPP from PC12 cultures [5] | differentiation phenotype of PC12 cells (PC12 cells; NGF treatment alone)
1 | O=C(CCn1cnc2c(=O)[nH]cnc21)Nc1ccc(C(=O)O)cc1 [AIT-082, N-4-carboxyphenyl-3-(6-oxohydropurin-9-yl) propanamide] | induce the expression | enhanced NGF-mediated differentiation | statistically significantly higher | significant increase | −20% | 136 ± 6 fmols/ml | increase |  | 
2 | NGF: Nerve growth factor procured from Life Technologies |  |  |  | significant increase |  |  |  | induce the release of sAPP | sympathetic neuronal phenotypes
3 | bFGF: basic fibroblast growth factor procured from Life Technologies |  |  |  | slight increase |  |  |  |  | 
